The subject of experiment [1] is non-template amplification. Briefly: LAMP assay, suppression of non-template (background) amplification, real-time SYTO-9 fluorescence. The class given is biochemical. As to conditions: for Minimum effective concentration of individual additive (Compound B) required for suppression of non-template amplification / Minimum effective concentration of individual additive (Compound A) required for suppression of non-template amplification: single additive, 100% suppression; for effect on non-template amplification: lower temperature. The method, then: (§1) • 0.4-8 ng/μl DNA polymerase (Bst 2.0-Sso7d) in LAMP Buffer [20 mM Tris, 125 mM KCl, 10 mM (NH4)2SO4, 8 mM MgSO4, 1.4 mM dNTPs, 0.1% Tween-20® (Sigma-Aldrich, St. Louis, Mo.), pH 8.8 25° C.] • 1.6 μM Forward internal primer (FIP)/Back internal primer (BIP), 0.2 μM F3/B3, 0.4 μM LoopF/LoopB • 5 ng λ DNA or none (non-template control) per reaction (25 μl)
(§2) The additive solution was added to the amplification mixture to provide a final concentration in the range of 0-40% v/v where the stock solution of additive was solubilized in water. For example, concentrations of isobutyramide in the range of 0.005 M-1.5 M, 0.01 M-1.2 M, or 0.01 M-0.7 M and N-methylformamide in the range of 0.01-2 M, 0.02 M-1.5 M, or 0.02 M-1 M (combined for example, at ratios of 10:1, 8:1, 6:1, 4:1, 2:1, 1.8:1, 1.6:1, 1.4:1, 1.2:1, 1:1 of N-methylformamide:isobutyramide) were tested at various temperatures. Other examples included in the final reaction mixture 0.02 M-1.3 M propionamide, 0.2 M-2 M Urea, 0.1 M-3.8 M formamide, 0.05 M-2 M acetamide, 0.02 M-0.5 M valeramide, 0.01 M-2 M N,N-dimethylformamide, 0.01 M-2 M N,N-diethylformamide, 0.01 M-1.8 M N,N-dimethylbutyramide.
(§3) The extent of amplification of lambda DNA (unless otherwise specified) with a LAMP amplicon size of 100-200 bases was measured by real-time fluorescence using 2 μM SYTO-9® (Life Technologies, Carlsbad, Calif.) double strand DNA intercalating dye (Nagamine, et al., Molecular and Cellular Probes, 16:223-229 (2002)) using the following primers: […]
The reduction in background fluorescence from non-template amplification was quantitatively assessed. The total reaction time for LAMP is 90 minutes. In the absence of additives, a positive signal for an amplification product of a template could be detected at about 3 minutes-15 minutes at temperatures 55° C.-72° C. and for a non-template signal at 8 minutes-30 minutes at temperatures below about 71° C. When a mixture of additives was included in the amplification mixture, a positive signal for template amplification is still seen at 3 minutes-15 minutes but no signal is seen even after 85 minutes for non-template reactions. This is recorded however as the maximum time to illustrate the synergistic effect. […] In all cases, the effect of the ratio of components of the mixture at specific molar concentrations is greater than the effect of each component small molecule individually tested at the same molar concentration and temperature (exemplified by data in Table 2).
The synergistic effect of mixing a carboxamide and N-alkylcarboxamide was examined.

The next experiment deals with lambda DNA. Briefly: LAMP assay, target (template) amplification, real-time SYTO-9 fluorescence. It is filed as biochemical, lambda phage. As for the experimental part: as §1, §2, §3
The reduction in background fluorescence from non-template amplification was quantitatively assessed. The total reaction time for LAMP is 90 minutes. In the absence of additives, a positive signal for an amplification product of a template could be detected at about 3 minutes-15 minutes at temperatures 55° C.-72° C. and for a non-template signal at 8 minutes-30 minutes at temperatures below about 71° C. […] This is recorded however as the maximum time to illustrate the synergistic effect. […]

[2] abbreviates: isobutyramide increased above 0.4 M.
The mark [3] stands for this setting: N-methylformamide increased above 1.0 M.

As to `CN(C)C=O` [DMF, N,N-dimethylformamide], the “Minimum effective concentration of individual additive (Compound B) required for suppression of non-template amplification” value in experiment [1] (65 °C) stood at 0.77 M.
On to `CCCCC(N)=O` [VA, valeramide], for which the “Minimum effective concentration of individual additive (Compound A) required for suppression of non-template amplification” value in experiment [1] (65 °C) was 0.20 M.
Turning to `CC(C)C(N)=O` [IBA, isobutyramide], the “suppression of non-template amplification” value in experiment [1] (0.4 M isobutyramide alone, 60 °C) is on record as around 1%; in experiment [1] (0.4 M isobutyramide alone, 65 °C) it was around 10%. Besides, the “effect on non-template amplification” value in experiment [1] (setting [2]) is recorded as “did not affect the non-template amplification at lower temperature”. Besides, the “Minimum effective concentration of individual additive (Compound A) required for suppression of non-template amplification” value in experiment [1] (65 °C) is recorded as 0.41 M. Further, the “effect on target amplification” value in the experiment on lambda DNA (setting [2]) was “further inhibit the target amplification”.
In the case of `CCN(C=O)CC` [DEF, N,N-diethylformamide], the “Minimum effective concentration of individual additive (Compound B) required for suppression of non-template amplification” value in experiment [1] (65 °C) was 0.26 M.
In the case of `CCCC(=O)N(C)C` [DMB, N,N-dimethylbutyramide], in experiment [1] (65 °C), the “Minimum effective concentration of individual additive (Compound A) required for suppression of non-template amplification” value is listed as 0.24 M.
For `CCC(N)=O` [PIA, propionamide], in experiment [1] (increasing amounts of 1.7 M propionamide, FIG. 6B), the “effect of increasing amounts of single additive on non-template amplification (time to threshold)” value is “no beneficial effect observed”. For the same molecule, in experiment [1] (65 °C), the “Minimum effective concentration of individual additive (Compound A) required for suppression of non-template amplification” value was determined as 0.80 M.
Turning to `CNC=O` [NMF, N-methylformamide], the “suppression of non-template amplification” value in experiment [1] (1.1 M N-methylformamide alone, 60 °C) is around 1%; in experiment [1] (1.1 M N-methylformamide alone, 65 °C), around 10%. In addition, the “effect on non-template amplification” value in experiment [1] (setting [3]) is recorded as “did not affect the non-template amplification at lower temperature”. Further, in experiment [1] (increasing amounts of 3.2 M N-methylformamide, FIG. 6A), the “effect of increasing amounts of single additive on non-template amplification (time to threshold)” value is “no beneficial effect observed”. Besides, in experiment [1] (65 °C), the “Minimum effective concentration of individual additive (Compound B) required for suppression of non-template amplification” value is recorded as 1.1 M. The “effect on target amplification” value is “inhibited target amplification above 68 °C” in the experiment on lambda DNA (1.1 M N-methylformamide, single additive, FIG. 2B) and “further inhibit the target amplification” in the experiment with lambda DNA (setting [3]).
Consider `NC=O` [FA, formamide], for which, in experiment [1] (65 °C), the “Minimum effective concentration of individual additive (Compound A) required for suppression of non-template amplification” value was 1.8 M.

The record behind these values is US9546358B2, “Compositions and methods for reducing background DNA amplification” (New England Biolabs, Inc., priority 2012, dated 2017).
